The target of data set [1] is T1, human GABAA receptors containing the α5 subunit stably expressed in Ltk cells (Homo sapiens, UniProt P18507+P31644).
T1 construct: expressed in transfected cells; host or cells: Ltk cells (mouse fibroblasts), stably expressing
T1 sequence (P31644 32-462): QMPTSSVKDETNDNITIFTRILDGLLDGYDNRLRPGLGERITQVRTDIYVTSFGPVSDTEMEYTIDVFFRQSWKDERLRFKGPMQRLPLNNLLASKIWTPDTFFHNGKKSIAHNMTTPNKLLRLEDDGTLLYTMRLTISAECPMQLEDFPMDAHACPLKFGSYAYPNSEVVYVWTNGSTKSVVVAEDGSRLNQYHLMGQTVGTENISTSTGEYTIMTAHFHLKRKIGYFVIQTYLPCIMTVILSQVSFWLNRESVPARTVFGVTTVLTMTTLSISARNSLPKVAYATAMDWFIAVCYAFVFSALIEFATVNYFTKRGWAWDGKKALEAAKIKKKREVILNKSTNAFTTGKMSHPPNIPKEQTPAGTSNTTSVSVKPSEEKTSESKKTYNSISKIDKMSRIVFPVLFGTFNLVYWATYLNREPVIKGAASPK
T1 sequence (P18507 40-467 limits assumed): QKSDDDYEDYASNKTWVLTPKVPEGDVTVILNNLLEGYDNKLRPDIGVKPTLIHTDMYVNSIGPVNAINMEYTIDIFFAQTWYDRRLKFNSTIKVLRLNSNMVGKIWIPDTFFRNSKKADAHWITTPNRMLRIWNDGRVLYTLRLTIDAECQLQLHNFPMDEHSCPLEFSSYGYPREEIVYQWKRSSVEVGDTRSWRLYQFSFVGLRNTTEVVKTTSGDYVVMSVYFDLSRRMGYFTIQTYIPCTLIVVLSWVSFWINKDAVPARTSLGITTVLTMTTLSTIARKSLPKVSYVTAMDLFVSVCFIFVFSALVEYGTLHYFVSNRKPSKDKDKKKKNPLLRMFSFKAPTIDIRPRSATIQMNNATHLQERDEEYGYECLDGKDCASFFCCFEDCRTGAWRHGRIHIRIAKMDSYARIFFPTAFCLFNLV
T1 sequence (P28472 26-473 partner): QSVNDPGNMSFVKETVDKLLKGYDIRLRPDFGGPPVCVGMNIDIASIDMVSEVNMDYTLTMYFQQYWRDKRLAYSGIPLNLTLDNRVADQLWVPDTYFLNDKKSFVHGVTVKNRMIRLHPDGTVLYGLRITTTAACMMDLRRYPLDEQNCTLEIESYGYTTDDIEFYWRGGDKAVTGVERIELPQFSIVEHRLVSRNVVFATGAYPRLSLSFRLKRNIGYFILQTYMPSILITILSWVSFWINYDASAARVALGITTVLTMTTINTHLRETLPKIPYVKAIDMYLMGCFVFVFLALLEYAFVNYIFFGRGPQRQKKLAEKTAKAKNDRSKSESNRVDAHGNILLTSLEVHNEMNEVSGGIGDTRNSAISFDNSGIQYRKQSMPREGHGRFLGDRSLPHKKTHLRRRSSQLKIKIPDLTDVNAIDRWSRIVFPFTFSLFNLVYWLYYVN
Description: displacement of [3H]-flumazenil ([3H]Ro 15-1788) from the benzodiazepine binding site. The note with it: read-out: Ki value for displacement of [3H]Ro 15-1788 from the α5 subunit of the human GABAA receptor.

For another data set, the system named is rat. In words: rat water maze test (cognition enhancement). It counts as in vivo.
The next data set concerns receptor. Description: receptor occupancy at the minimum effective dose. It counts as in vivo, rat. To be noted: at the minimum effective dose of 0.3 mg/kg.
Data set [2] can be described thus: time dependent solubility in 2.5% aqueous di-sodium pamoate solution by HPLC. It counts as physicochemical. The method, then: To a stirred, light protected glass vial was added 23.0 mL 2.5% aqueous di-sodium pamoate solution and 42 mg 3-(5-methylisoxazol-3-yl)-6-(1-methyl-1,2,3-triazol-4-yl)methyloxy-1,2,4-triazolo[3,4-a]phthalazine. Aliquots were removed by 3 mL syringe at various time intervals, passed through 0.22 μm Millex-GV low protein binding syringe filters, and diluted to appropriate concentrations with 50/50 MeCN/H2O for HPLC analysis.

The nature of data set [3]: exposure of the anhydrous form to pure water (XRPD of solids). It counts as physicochemical. The method, then:
To an Eppendorf tube was added 1 mL USP water and 20 mg 3-(5-methylisoxazol-3-yl)-6-(1-methyl-1,2, 3-triazol-4-yl)methyloxy-1,2, 4-triazolo[3,4-a]phthalazine. The resulting suspension was vortexed for 10 seconds, then light protected with aluminium foil and placed on a rotary mixer for 72 hours. The solids were then vacuum filtered off and rinsed with 2xl mL water. Solids were partially wet when first analyzed by XRPD, afterward they were dried by house vacuum for 48 hours before more XRPD analysis.
The XRPD data have been described earlier with the exception of the incompletely converted material from the synthesis in water. […] Conversion may take place more rapidly if solubility is increased by the addition of di-sodium pamoate or by other means. The di-hydrate may also be prepared using a 10% solution of MeCN in water.

Two molecules from US6534505B2, “Therapeutic polymorphs of a GABA-A alpha-5 inverse agonist and pamoate formulations of the same” (Merck & Co., Inc., priority 1998, dated 2003) can be followed below.

In brackets after ≈: the same amount, converted by molar mass. A value given as a limit tells only on which side of the number the result lay.

In general, melting point refers to the temperature of the solid-liquid transition. The molecule `Cc1cc(-c2nnc3c4ccccc4c(OCc4cccc(Br)n4)nn23)no1` [compound 2, 6-(6-Bromopyridin-2-yl)methyloxy-3-(5-methylisoxazol-3-yl)-1,2,4-triazolo[3,4-a]phthalazine] registered a melting point of 247.5 to 249 °C.

As usually defined, the Ki is the equilibrium dissociation constant of an inhibitor or competing ligand from its target. Consider `Cc1cc(-c2nnc3c4ccccc4c(OCc4cn(C)nn4)nn23)no1` [L-822, 179, 3-(5-methylisoxazol-3-yl)-6-(1-methyl-1,2,3-triazol-4-yl)methyloxy-1,2,4-triazolo[3,4-a]phthalazine], for which the Ki in data set [1] was at most 0.1 µM. For the same molecule, the minimum effective dose with rat came out at 0.3 mg/kg. In addition, the enhancement of cognition result in the data set with rat (demonstrated at 0.3 mg/kg and 3 mg/kg) is on record as “enhance cognition”. The same molecule yielded a receptor occupancy in the data set on receptor of 40%. Also, the solubility at 5 minutes in data set [2] (2.5% aqueous di-sodium pamoate solution, aqueous with cosolvent or surfactant or cyclodextrin, thermodynamic from solid, 5 minutes (0.08 h), read-out: Concentration (solubility by HPLC)) is 1890 µg/mL (≈ 5.22 mM). Also, the solubility at 90 minutes in data set [2] (2.5% aqueous di-sodium pamoate solution, aqueous with cosolvent or surfactant or cyclodextrin, thermodynamic from solid, 90 minutes (1.50 h), read-out: Concentration (solubility by HPLC)) was 1920 µg/mL (≈ 5.3 mM). In addition, the solubility at 930 minutes in data set [2] (2.5% aqueous di-sodium pamoate solution, aqueous with cosolvent or surfactant or cyclodextrin, thermodynamic from solid, 930 minutes (15.5 h), read-out: Concentration (solubility by HPLC)) turned out to be 1410 µg/mL (≈ 3.89 mM). The solubility at 1500 minutes in data set [2] (2.5% aqueous di-sodium pamoate solution, aqueous with cosolvent or surfactant or cyclodextrin, thermodynamic from solid, 1500 minutes (25.0 h), read-out: Concentration (solubility by HPLC)) came out at 1290 µg/mL (≈ 3.56 mM). The solubility at 2910 minutes in data set [2] (2.5% aqueous di-sodium pamoate solution, aqueous with cosolvent or surfactant or cyclodextrin, thermodynamic from solid, 2910 minutes (48.5 h), read-out: Concentration (solubility by HPLC)) stood at 1240 µg/mL (≈ 3.42 mM). Moreover, the “% of 5 Minute Value” in data set [2] (5 minutes (0.08 h)) was 100.0%; in data set [2] (90 minutes (1.50 h)), 101.4%; in data set [2] (930 minutes (15.5 h)) it was 74.5%; in data set [2] (1500 minutes (25.0 h)), 68.0%; in data set [2] (2910 minutes (48.5 h)) it was 65.4%. Moreover, the “decrease in solubility over time, % of the original solubility after 5 minutes” value in data set [2] (summary of Table 1) is on record as about 65%. In data set [3], the “solubility in pure water” value is given as “extreme insolubility”.
